The text below walks through data of PubChem BioAssay AID977613 (Broad Institute, 2014).

Molecules are shown by their SMILES. Calls of active or inactive are those of the source. How the calls were made is not given here.

This assay concerns Broad 7084-01 inhibitor HTS, set 2. Description: inhibitors in Broad screen 7084-01, set 2 (AID 977613).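 Further: host cells are infected with parasite promastigotes that become internalized.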

Take `CN1C(=O)c2cc(NC(=O)c3ccc(F)c(F)c3)ccc2OC[C@@H]2O[C@@H](CC(=O)N[C@@H]3CCN(Cc4ccccc4)C3)CC[C@H]21`: the active concentration is > 10 µM (inactive).

With `COC(=O)C[C@@H]1CC[C@@H]2[C@@H](COc3ccc(NS(=O)(=O)c4ccccc4Cl)cc3C(=O)N2C)O1`, the active concentration was > 10 µM (inactive). Consider `COc1ccccc1C(=O)Nc1ccc2c(c1)C(=O)N(C)[C@H]1CC[C@@H](CC(=O)NCCc3ccncc3)O[C@H]1CO2`, for which the active concentration is > 10 µM (inactive).

Turning to `O=C(C[C@@H]1CC[C@H]2[C@@H](COC[C@@H](O)CN2CC2CC2)O1)NCc1ccc(Cl)cc1`, the active concentration is > 10 µM (inactive). With `COc1ccccc1CN1[C@@H](CO)[C@@H]2c3ccccc3N(C(=O)c3cccnc3)C[C@@H]21`, the active concentration was > 10 µM (inactive). Regarding `OC[C@@H]1[C@H](c2ccccc2)C2(CN(Cc3nccs3)C2)N1Cc1cccnc1`, the active concentration was > 10 µM (inactive).

With `COC(=O)[C@H]1[C@H](CO)[C@H]2Cn3c(ccc(-c4cccc(OC)c4)c3=O)[C@H]2N1Cc1nccs1`, the active concentration is > 10 µM (inactive).

Take `OC[C@H]1[C@@H](c2ccc(C#CC3(O)CCCC3)cc2)[C@H]2CN(Cc3cncnc3)CCCCN21`: the active concentration was > 10 µM (inactive). For the compound `COc1cccc(C(=O)Nc2ccc3c(c2)C(=O)N(C)[C@H]2CC[C@H](CC(=O)NCCCN4CCOCC4)O[C@H]2CO3)c1`, the active concentration is > 10 µM (inactive). Turning to `O=C(C[C@H]1CC[C@H]2[C@@H](COC[C@@H](O)CN2C(=O)c2ccc3c(c2)OCO3)O1)NC1CCC1`, the active concentration is > 10 µM (inactive). Regarding `N#C[C@@H]1[C@@H](c2ccccc2-c2ccccc2F)[C@@H](CO)N1C(=O)C1CCC1`, the active concentration is > 10 µM (inactive). In the case of `CN1[C@@H]2CN(C(=O)C3CCCCC3)c3ccccc3[C@@H]2[C@@H]1CO` it was > 10 µM (inactive). Regarding `C/C=C/c1ccccc1[C@@H]1[C@H](C#N)N(C(C)=O)[C@H]1CO`, the active concentration is > 10 µM (inactive). On to `COc1ccc(C#Cc2ccc([C@H]3[C@@H](CO)N4C(=O)CN(C(=O)c5ccc(F)cc5)C[C@H]34)cc2)cc1`, for which the active concentration is > 10 µM (inactive). Consider `O=C(C[C@@H]1CC[C@@H]2[C@H](COC[C@H](O)CN2CC2CC2)O1)NCC1CC1`, for which the active concentration is > 10 µM (inactive).

In the case of `O=C(O)[C@H]1[C@H](CO)[C@H]2Cn3c(ccc(-c4ccc(F)cc4)c3=O)[C@@H]1N2CC1CCCCC1`, the active concentration is > 10 µM (inactive). In the case of `C/C=C/c1ccc([C@H]2[C@@H](CO)N(CCC(F)(F)F)C23CN(C(=O)COC)C3)cc1` it was > 10 µM (inactive). On to `CCC(=O)N1[C@H](CO)[C@@H](c2ccc(/C=C/c3ccccc3)cc2)C12CN(S(C)(=O)=O)C2`, for which the active concentration was > 10 µM (inactive). For the compound `COC(=O)[C@@H]1[C@@H](CO)[C@@H]2Cn3c(cccc3=O)[C@@H]2N1CC1CCOCC1`, the active concentration was > 10 µM (inactive).

For `CN1C(=O)c2cc(NC(=O)Cc3cccs3)ccc2OC[C@H]2O[C@H](CC(=O)N[C@@H]3CCN(Cc4ccccc4)C3)CC[C@H]21`, the active concentration was > 10 µM (inactive). Take `COc1cccc(C(=O)N2C[C@@H]3[C@H](c4ccccc42)[C@H](CO)N3Cc2ccccc2Cl)c1`: the active concentration is > 10 µM (inactive).

With `O=S(=O)(c1ccc(F)cc1)N1CCCCN2[C@H](C1)[C@@H](c1ccc(-c3cncnc3)cc1)[C@@H]2CO`, the active concentration is > 10 µM (inactive). With `O=C(NC1CCCCC1)N1CC2(C1)[C@H](c1ccccc1)[C@H](CO)N2CC1CCCC1`, the active concentration was > 10 µM (inactive). For `COCC#Cc1ccc([C@@H]2[C@@H](CO)N3C(=O)CN(C(=O)Nc4ccccc4F)C[C@H]23)cc1`, the active concentration was > 10 µM (inactive). In the case of `Cn1cnc(CCNC(=O)C[C@@H]2CC[C@H]3[C@@H](COC[C@@H](O)CN3C(=O)C3CC3)O2)c1` it was > 10 µM (inactive); in that of `C[C@@H](NC(=O)[C@@H]1[C@@H](CO)[C@@H]2Cn3c(ccc(-c4ccncc4)c3=O)[C@@H]2N1C)c1ccccc1`, > 10 µM (inactive).

Regarding `CCN1CC(=O)N2[C@H](CO)[C@@H](c3ccc(Br)cc3)[C@@H]2C1`, the active concentration was > 10 µM (inactive). With `COc1ccc(-c2ccccc2[C@H]2[C@@H](C#N)N(C(=O)NC3CCCCC3)[C@H]2CO)cc1`, the active concentration is > 10 µM (inactive). As to `CCCNC(=O)N1[C@H](CO)[C@@H]2c3ccccc3N(C(=O)C3CCC3)C[C@@H]21`, the active concentration is > 10 µM (inactive). Take `COc1ccccc1NC(=O)N1C[C@@H]2[C@H](c3ccccc31)[C@@H](CO)N2C(C)=O`: the active concentration was > 10 µM (inactive). In the case of `O=C(Nc1cc(F)ccc1F)N1CC(=O)N2[C@H](C1)[C@@H](c1ccc(/C=C/c3ccccc3)cc1)[C@@H]2CO` it was > 10 µM (inactive). For `O=C(Nc1ccccc1)N1C[C@H]2[C@@H](c3ccccc31)[C@H](CO)N2Cc1ccccc1Cl`, the active concentration was > 10 µM (inactive).

Take `CCCNC(=O)N1CC2(C1)[C@H](c1ccccc1)[C@@H](CO)N2Cc1cccc(Cl)c1`: the active concentration was > 10 µM (inactive). As for `COc1ccccc1-c1ccccc1[C@H]1[C@H](C#N)N(C(=O)CN(C)C)[C@H]1CO`, the active concentration was > 10 µM (inactive). Take `OC[C@@H]1[C@@H]2c3ccccc3NC[C@@H]2N1Cc1ccccc1Cl`: the active concentration is > 10 µM (inactive).

Turning to `C/C=C/c1ccccc1[C@@H]1[C@@H](CO)N(C(=O)Cc2ccccn2)[C@H]1C#N`, the active concentration is > 10 µM (inactive). In the case of `O=C(C[C@@H]1CC[C@@H]2[C@H](COC[C@H](O)CN2S(=O)(=O)c2ccccc2)O1)N[C@H]1CCN(Cc2ccccc2)C1`, the active concentration was > 10 µM (inactive). As to `COc1ccc(-c2ccccc2[C@H]2[C@@H](C#N)N(C(=O)C3CCCCC3)[C@H]2CO)cc1`, the active concentration is > 10 µM (inactive). Consider `COc1ccccc1CN1CC[C@@H]2[C@@H](CO)Nc3ccc(C#Cc4ccccc4)cc3[C@@H]21`, for which the active concentration was > 10 µM (inactive). In the case of `O=C(C[C@@H]1CC[C@@H]2[C@H](COC[C@@H](O)CN2C(=O)Cc2ccccc2)O1)NC1CCCC1`, the active concentration was > 10 µM (inactive). For the compound `CCCC#Cc1ccc([C@H]2[C@H](CO)N3C(=O)CN(C(=O)c4cccnc4)C[C@@H]23)cc1`, the active concentration is > 10 µM (inactive).

On to `O=C(C[C@@H]1CC[C@H]2[C@@H](COC[C@H](O)CN2C(=O)Nc2ccc(C(F)(F)F)cc2)O1)NCC1CC1`, for which the active concentration was > 10 µM (inactive). On to `O=C(C[C@H]1CC[C@H]2[C@@H](COC[C@H](O)CN2CC2CCOCC2)O1)NCC1CCCCC1`, for which the active concentration was > 10 µM (inactive). For the compound `O=C(C[C@H]1CC[C@@H]2[C@H](COC[C@@H](O)CN2Cc2cccc(F)c2)O1)NCc1cccc(F)c1`, the active concentration was > 10 µM (inactive). As to `C[C@@H](O)C#Cc1ccc([C@@H]2[C@H](CO)N3CCCCN(C(=O)c4ccc5c(c4)OCO5)C[C@@H]23)cc1`, the active concentration was > 10 µM (inactive). In the case of `Cn1cnc(S(=O)(=O)N2C[C@@H](O)COC[C@H]3O[C@@H](CC(=O)NC4CCCC4)CC[C@@H]32)c1`, the active concentration is > 10 µM (inactive). Turning to `O=C(CC1CC1)N1[C@@H]2CN(S(=O)(=O)c3ccccc3F)c3ccccc3[C@@H]2[C@@H]1CO`, the active concentration was > 10 µM (inactive). Regarding `O=C([C@H]1[C@H](CO)[C@H]2Cn3c(cccc3=O)[C@@H]1N2Cc1cocn1)N1CCCCC1`, the active concentration was > 10 µM (inactive). In the case of `CCC(=O)N1CC2(C1)CN(C(=O)c1cnccn1)[C@H](CO)c1c2c2ccc(OC)cc2n1C` it was > 10 µM (inactive); in that of `O=C(c1cnccn1)N1CC[C@@H]2[C@H]1c1cc(-c3ccccc3F)ccc1N[C@@H]2CO`, > 10 µM (inactive). For the compound `CN1C[C@H]2[C@@H](c3ccccc31)[C@@H](CO)N2C(=O)Nc1cccc(F)c1`, the active concentration is > 10 µM (inactive). `COc1ccc2c3c(n(C)c2c1)[C@@H](CO)NCC31CCN(Cc2cc(F)ccc2F)CC1`: the active concentration is > 10 µM (inactive). With `C/C=C/c1ccc2c(c1)[C@H]1[C@H](CCN1C(=O)Cc1cccnc1)[C@@H](CO)N2C` the figure was > 10 µM (inactive); with `O=C(c1ccccn1)N1CC(=O)N2[C@H](CO)[C@H](c3ccc(C4=CCCC4)cc3)[C@@H]2C1`, > 10 µM (inactive); with `O=C(C1CC1)N1CC2(C1)[C@H](c1ccccc1)[C@@H](CO)N2Cc1nccs1`, > 10 µM (inactive). In the case of `CC(C)CC#Cc1ccc([C@@H]2[C@H]3CN(C(=O)c4ccccn4)CC(=O)N3[C@H]2CO)cc1`, the active concentration was > 10 µM (inactive). In the case of `CN(C)CC(=O)N1[C@@H](CO)[C@@H](c2ccccc2)C12CN(CCC(F)(F)F)C2`, the active concentration is > 10 µM (inactive). Regarding `COc1cccc(-c2ccc3c(c2)[C@H]2[C@H](CCN2C(=O)Cc2ccccc2)[C@H](CO)N3)c1`, the active concentration is > 10 µM (inactive). Take `Cc1ccccc1-c1ccccc1[C@@H]1[C@H](C#N)N(C(=O)c2ccccc2)[C@H]1CO`: the active concentration is > 10 µM (inactive).

Take `O=C(c1cnccn1)N1CC(=O)N2[C@H](CO)[C@@H](c3ccc(C#CC4CC4)cc3)[C@@H]2C1`: the active concentration is > 10 µM (inactive).

Turning to `COC(=O)C[C@H]1CC[C@@H]2[C@H](COc3ccc(NC(=O)c4cccc(Cl)c4)cc3C(=O)N2C)O1`, the active concentration was > 10 µM (inactive). On to `O=C(C[C@@H]1CC[C@@H]2[C@H](COC[C@@H](O)CN2Cc2cccc(C(F)(F)F)c2)O1)NCc1ccccc1`, for which the active concentration was > 10 µM (inactive).

`COc1ccc2c3c([nH]c2c1)[C@@H](CO)N(C(=O)NC(C)C)CC31CCN(C(=O)c2cnccn2)CC1`: the active concentration is > 10 µM (inactive).

Take `COc1ccc2c3c(n(C)c2c1)[C@@H](CO)N(C(=O)Cc1ccccc1)CC31CN(C)C1`: the active concentration was > 10 µM (inactive). `CCCNC(=O)N1[C@H](C#N)[C@H](c2ccccc2-c2ccc(C)cc2)[C@@H]1CO`: the active concentration is > 10 µM (inactive).
